The record followed here is the NIST ThermoML archive (doi:10.1016/j.fluid.2011.09.010).

This data set in a line: activity coefficient (dimensionless); of the first substance listed, at infinite dilution; xn = mol fraction of the nth substance listed. The note with it: 101.3 kPa, Liquid, Differential ebulliometry, x1 = 0.

Structures are written as SMILES. Numbers after ± are expanded uncertainties.

`C1CCCCC1` [cyclohexane] + NC1CCCCC1: the activity coefficient amounted to 1.24 ± 0.15 (373.15 K) and 1.18 ± 0.14 (393.15 K).
For the compound `NC1CCCCC1` [cyclohexylamine] + C1CCCCC1, the activity coefficient reads like this: (333.15 K) 1.77 ± 0.21; (348.15 K) 1.49 ± 0.18.
With `NC1CCCCC1` [cyclohexylamine] + CC1CCCCC1, the activity coefficient is 1.87 ± 0.22 (353.15 K), 1.64 ± 0.2 (373.15 K) and 1.48 ± 0.18 (393.15 K).
Turning to `NC1CCCCC1` [cyclohexylamine] + CCC1CCCCC1, the activity coefficient (353.15 K) is 1.52 ± 0.18, the activity coefficient (373.15 K) worked out at 1.45 ± 0.17 and the activity coefficient (393.15 K) was 1.36 ± 0.16.
Turning to `CC1CCCCC1` [methylcyclohexane] + NC1CCCCC1, the activity coefficient reads like this: (333.15 K) 1.19 ± 0.14; (353.15 K) 1.26 ± 0.15; (373.15 K) 1.25 ± 0.15.
Turning to `CCC1CCCCC1` [ethylcyclohexane] + NC1CCCCC1, the activity coefficient (353.15 K) stood at 1.57 ± 0.19, the activity coefficient (373.15 K) worked out at 1.45 ± 0.17 and the activity coefficient (393.15 K) is 1.42 ± 0.17.
